Reference: ChEMBL document CHEMBL5625161, “Pharmacological activity and mechanism of pyrazines” (Eur J Med Chem, 2023)
≈ marks a conversion by molar mass, not a printed value.

Key:
[1] = Antiproliferative activity against mouse […] cells assessed as inhibition of cell growth incubated for 48 hrs by MTT assay; assay type: functional, cell-based; settings: 48 h
[2] = target: T1, Fibroblast growth factor receptor 1 (Homo sapiens, UniProt P11362); test: Inhibition of human recombinant FGFR1 at 1 uM by Enzyme-linked immunosorbent assay relative to control
[3] = target: T1, Fibroblast growth factor receptor 1; test: Inhibition of human recombinant FGFR1 at 10 uM by Enzyme-linked immunosorbent assay relative to control
Histone deacetylase 3 = Histone deacetylase 3 (Homo sapiens, UniProt O15379); test: Inhibition of human recombinant HDAC3
Histone deacetylase 1 = Histone deacetylase 1 (Homo sapiens, UniProt Q13547); test: Inhibition of human recombinant HDAC1
Histone deacetylase 2 = Histone deacetylase 2 (Homo sapiens, UniProt Q92769); test: Inhibition of human recombinant HDAC2
BGC-823 = test: Cytotoxicity against human BGC-823 cells assessed as reduction in cell viability incubated for 24 hrs by MTT assay; assay type: functional, cell-based; settings: BGC-823, 24 h
[4] = target: Amine oxidase [flavin-containing] B (Homo sapiens, UniProt P27338); test: Inhibition of human recombinant MAO-B expressed in insect cells incubated for 15 mins by Amplex red and horseradish peroxidase based fluorescence assay; design: species or system Insect cell
H322 = test: Antiproliferative activity against human H322 cells assessed as reduction in cell viability incubated for 48 hrs by SRB assay; assay type: functional, cell-based; settings: NCI-H322, 48 h
A549 [5] = test: Antiproliferative activity against human A549 cells assessed as reduction in cell viability incubated for 48 hrs by SRB assay; assay type: functional, cell-based; settings: A549, 48 h
NCI-H460 = test: Cytotoxicity against human NCI-H460 cells assessed as reduction in cell growth incubated for 72 hrs by CCK-8 assay; assay type: functional, cell-based; settings: NCI-H460, 72 h
HEY = test: Cytotoxicity against human HEY cells assessed as reduction in cell growth incubated for 72 hrs by CCK-8 assay; assay type: functional, cell-based
ES-2 = test: Cytotoxicity against human ES2 cells assessed as reduction in cell growth incubated for 72 hrs by CCK-8 assay; assay type: functional, cell-based; settings: ES-2, 72 h
NCI-H1299 = test: Cytotoxicity against human NCI-H1299 cells assessed as reduction in cell growth incubated for 72 hrs by CCK-8 assay; assay type: functional, cell-based; settings: NCI-H1299, 72 h
A549 [6] = test: Cytotoxicity against human A549 cells assessed as reduction in cell growth incubated for 72 hrs by CCK-8 assay; assay type: functional, cell-based; settings: A549, 72 h
SK-OV-3 = test: Cytotoxicity against human SK-OV-3 cells assessed as reduction in cell growth incubated for 72 hrs by CCK-8 assay; assay type: functional, cell-based; settings: SK-OV-3, 72 h
Caco-2 = test: Cytotoxicity against human Caco-2 cells assessed as reduction in cell growth incubated for 72 hrs by CCK-8 assay; assay type: functional, cell-based; settings: Caco-2, 72 h
OVCAR-5 = test: Cytotoxicity against human OVCAR-5 cells assessed as reduction in cell growth incubated for 72 hrs by CCK-8 assay; assay type: functional, cell-based; settings: OVCAR-5, 72 h
SW626 = test: Cytotoxicity against human SW626 cells assessed as reduction in cell growth incubated for 72 hrs by CCK-8 assay; assay type: functional, cell-based; settings: SW626, 72 h
PC-3 = test: Antiproliferative activity against human PC-3 cells assessed as reduction in cell viability incubated for 24 hrs by MTT assay; assay type: functional, cell-based; settings: PC-3, 24 h
HT-29 = test: Antiproliferative activity against human HT-29 cells assessed as reduction in cell viability incubated for 24 hrs by MTT assay; assay type: functional, cell-based; settings: HT-29, 24 h
HeLa = test: Antiproliferative activity against human HeLa cells assessed as reduction in cell viability incubated for 24 hrs by MTT assay; assay type: functional, cell-based
HCT-116 = test: Antiproliferative activity against human HCT-116 cells assessed reduction in cell growth incubated for 24 hrs by MTT assay; assay type: functional, cell-based; settings: HCT-116, 24 h
MCF7 [7] = test: Cytotoxicity against human MCF7 cells assessed as reduction in cell growth incubated for 24 hrs by MTT assay; assay type: functional, cell-based; settings: MCF7, 24 h
[8] = target: Telomerase reverse transcriptase (Homo sapiens, UniProt O14746); test: Inhibition of telomerase (unknown origin)
SW 1116 = test: Antiproliferative activity against human SW 1116 cells assessed as reduction in cell growth incubated for 48 hrs by MTT assay; assay type: functional, cell-based; settings: SW 1116, 48 h
MCF7 [9] = test: Antiproliferative activity against human MCF7 cells assessed as inhibition of cell growth at 10 uM incubated for 48 hrs by SRB assay relative to control; assay type: functional; design: scale not given: the % may be the effect or the level left
Acetylcholinesterase = Acetylcholinesterase (Homo sapiens, UniProt P22303); test: Inhibition of AChE (unknown origin)
Cholinesterase = Cholinesterase (Homo sapiens, UniProt P06276); test: Inhibition of BchE (unknown origin)
4T1 = test: Cytotoxicity against mouse 4T1 cells assessed as reduction in cell growth incubated for 48 hrs by MTT assay; assay type: functional, cell-based; settings: 4T1, 48 h
MCF7 [10] = test: Antiproliferative activity against human MCF7 cells assessed as reduction in cell growth incubated for 48 hrs by MTT assay; assay type: functional, cell-based; settings: MCF7, 48 h
MDA-MB-231 = test: Antiproliferative activity against human MDA-MB-231 cells assessed as reduction in cell growth incubated for 48 hrs by MTT assay; assay type: functional, cell-based; settings: MDA-MB-231, 48 h
[11] = Antiproliferative activity against mouse L929 cells assessed as inhibition of cell growth incubated for 5 days by MTT assay; assay type: toxicity, cell-based
HUVEC = test: Antiproliferative activity against VEGF-stimulated human HUVEC cells assessed as reduction in cell viability incubated for 72 hrs by Cell Counting Kit-8 assay; assay type: functional, cell-based
Coagulation factor X = Coagulation factor X (Homo sapiens, UniProt P00742); test: Inhibition of human factor Xa
Phytophthora nicotianae = test: Antifungal activity against Phytophthora nicotianae assessed a fungal growth inhibition measured after 4 to 8 days; assay type: functional, organism-based
Rhizoctonia solani = test: Antifungal activity Rhizoctonia solani assessed as fungal growth inhibition measured after 4 to 8 days; assay type: functional, organism-based

T1 sequence (P11362 22-822 limits assumed): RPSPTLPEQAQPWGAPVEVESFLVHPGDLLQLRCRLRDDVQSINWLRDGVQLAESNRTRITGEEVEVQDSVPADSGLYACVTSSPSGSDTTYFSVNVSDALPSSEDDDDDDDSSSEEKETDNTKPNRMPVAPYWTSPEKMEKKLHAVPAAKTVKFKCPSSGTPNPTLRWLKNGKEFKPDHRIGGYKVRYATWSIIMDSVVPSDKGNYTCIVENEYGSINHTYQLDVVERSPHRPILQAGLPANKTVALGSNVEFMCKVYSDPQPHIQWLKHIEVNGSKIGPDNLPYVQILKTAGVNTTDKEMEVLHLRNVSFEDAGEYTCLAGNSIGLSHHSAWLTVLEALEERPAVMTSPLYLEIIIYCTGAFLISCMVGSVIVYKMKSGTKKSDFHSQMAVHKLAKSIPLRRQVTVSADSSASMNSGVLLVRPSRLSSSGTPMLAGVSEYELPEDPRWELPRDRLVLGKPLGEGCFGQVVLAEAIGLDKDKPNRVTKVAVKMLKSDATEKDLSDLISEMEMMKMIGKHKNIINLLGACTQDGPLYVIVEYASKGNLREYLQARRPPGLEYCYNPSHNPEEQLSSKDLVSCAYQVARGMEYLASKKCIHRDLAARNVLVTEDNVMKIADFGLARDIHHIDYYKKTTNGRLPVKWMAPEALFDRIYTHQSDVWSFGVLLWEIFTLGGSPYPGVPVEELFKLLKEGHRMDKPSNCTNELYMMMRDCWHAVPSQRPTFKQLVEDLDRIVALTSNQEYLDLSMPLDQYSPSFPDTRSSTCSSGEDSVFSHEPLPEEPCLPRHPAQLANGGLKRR
Chain of Histone deacetylase 1 (Q13547 whole entry): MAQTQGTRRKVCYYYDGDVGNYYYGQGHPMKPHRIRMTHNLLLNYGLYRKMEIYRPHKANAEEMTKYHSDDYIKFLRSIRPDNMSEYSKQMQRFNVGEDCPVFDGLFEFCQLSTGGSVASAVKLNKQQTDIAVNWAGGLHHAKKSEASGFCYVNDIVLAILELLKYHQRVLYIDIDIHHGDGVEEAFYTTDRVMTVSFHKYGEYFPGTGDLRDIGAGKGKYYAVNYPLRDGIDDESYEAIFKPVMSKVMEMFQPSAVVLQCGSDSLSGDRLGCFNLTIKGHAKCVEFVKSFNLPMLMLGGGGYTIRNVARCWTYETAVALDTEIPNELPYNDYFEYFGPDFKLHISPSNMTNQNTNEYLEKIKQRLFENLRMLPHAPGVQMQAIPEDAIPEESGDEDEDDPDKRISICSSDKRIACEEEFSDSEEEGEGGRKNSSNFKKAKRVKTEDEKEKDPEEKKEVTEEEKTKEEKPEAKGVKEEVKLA
Chain of Histone deacetylase 3 (O15379 whole entry): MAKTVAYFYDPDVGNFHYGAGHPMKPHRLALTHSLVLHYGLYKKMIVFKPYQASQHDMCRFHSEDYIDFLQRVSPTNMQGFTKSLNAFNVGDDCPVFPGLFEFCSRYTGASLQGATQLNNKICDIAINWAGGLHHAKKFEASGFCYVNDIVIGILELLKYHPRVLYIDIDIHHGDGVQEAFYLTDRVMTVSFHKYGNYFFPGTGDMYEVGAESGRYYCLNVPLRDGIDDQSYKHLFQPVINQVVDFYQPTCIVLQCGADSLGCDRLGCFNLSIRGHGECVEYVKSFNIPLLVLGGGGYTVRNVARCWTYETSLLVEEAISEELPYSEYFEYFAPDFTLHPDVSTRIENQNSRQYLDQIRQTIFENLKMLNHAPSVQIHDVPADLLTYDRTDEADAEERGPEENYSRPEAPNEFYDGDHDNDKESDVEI
Chain of Telomerase reverse transcriptase (O14746 whole entry): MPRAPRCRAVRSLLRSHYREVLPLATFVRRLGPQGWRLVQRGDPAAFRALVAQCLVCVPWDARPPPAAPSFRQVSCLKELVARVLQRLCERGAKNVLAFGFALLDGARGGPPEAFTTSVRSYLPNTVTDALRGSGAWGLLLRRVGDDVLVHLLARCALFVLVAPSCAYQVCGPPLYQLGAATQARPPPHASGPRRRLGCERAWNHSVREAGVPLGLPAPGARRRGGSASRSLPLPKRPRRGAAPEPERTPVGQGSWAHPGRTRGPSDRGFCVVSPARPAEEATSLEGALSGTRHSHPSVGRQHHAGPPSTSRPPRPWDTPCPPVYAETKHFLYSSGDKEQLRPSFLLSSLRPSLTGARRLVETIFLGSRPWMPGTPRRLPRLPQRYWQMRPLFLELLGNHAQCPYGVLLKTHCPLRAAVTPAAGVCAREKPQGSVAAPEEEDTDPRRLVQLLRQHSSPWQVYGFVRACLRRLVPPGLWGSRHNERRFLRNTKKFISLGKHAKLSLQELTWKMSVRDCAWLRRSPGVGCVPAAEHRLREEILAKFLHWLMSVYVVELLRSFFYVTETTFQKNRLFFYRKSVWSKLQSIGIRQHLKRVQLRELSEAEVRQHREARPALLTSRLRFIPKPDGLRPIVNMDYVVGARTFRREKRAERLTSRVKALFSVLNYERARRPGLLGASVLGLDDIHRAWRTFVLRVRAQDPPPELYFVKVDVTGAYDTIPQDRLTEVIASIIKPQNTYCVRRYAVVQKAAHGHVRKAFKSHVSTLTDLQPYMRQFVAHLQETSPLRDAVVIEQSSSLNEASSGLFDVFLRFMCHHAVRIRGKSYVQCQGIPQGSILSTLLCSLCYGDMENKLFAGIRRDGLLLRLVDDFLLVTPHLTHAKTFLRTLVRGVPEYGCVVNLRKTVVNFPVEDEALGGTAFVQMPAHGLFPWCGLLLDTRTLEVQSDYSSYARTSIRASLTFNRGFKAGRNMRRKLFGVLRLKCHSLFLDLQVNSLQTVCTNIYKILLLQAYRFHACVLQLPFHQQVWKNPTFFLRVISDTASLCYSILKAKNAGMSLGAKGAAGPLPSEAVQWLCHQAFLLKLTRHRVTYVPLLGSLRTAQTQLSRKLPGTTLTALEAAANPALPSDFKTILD
Chain of Amine oxidase [flavin-containing] B (P27338 whole entry): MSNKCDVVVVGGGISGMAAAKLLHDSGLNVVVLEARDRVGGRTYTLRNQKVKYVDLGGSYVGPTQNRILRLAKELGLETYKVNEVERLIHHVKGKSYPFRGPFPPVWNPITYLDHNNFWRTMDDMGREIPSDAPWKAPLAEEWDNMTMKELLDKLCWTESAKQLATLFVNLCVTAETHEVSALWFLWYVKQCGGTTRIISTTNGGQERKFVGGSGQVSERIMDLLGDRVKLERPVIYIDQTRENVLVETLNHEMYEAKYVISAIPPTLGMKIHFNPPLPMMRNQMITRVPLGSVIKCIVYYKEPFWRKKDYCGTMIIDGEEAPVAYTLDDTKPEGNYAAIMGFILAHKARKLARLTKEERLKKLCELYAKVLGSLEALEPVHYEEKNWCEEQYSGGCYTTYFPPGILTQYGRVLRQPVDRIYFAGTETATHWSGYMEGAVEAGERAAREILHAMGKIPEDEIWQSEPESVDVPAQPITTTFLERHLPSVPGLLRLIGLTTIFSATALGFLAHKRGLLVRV
Chain of Histone deacetylase 2 (Q92769 whole entry): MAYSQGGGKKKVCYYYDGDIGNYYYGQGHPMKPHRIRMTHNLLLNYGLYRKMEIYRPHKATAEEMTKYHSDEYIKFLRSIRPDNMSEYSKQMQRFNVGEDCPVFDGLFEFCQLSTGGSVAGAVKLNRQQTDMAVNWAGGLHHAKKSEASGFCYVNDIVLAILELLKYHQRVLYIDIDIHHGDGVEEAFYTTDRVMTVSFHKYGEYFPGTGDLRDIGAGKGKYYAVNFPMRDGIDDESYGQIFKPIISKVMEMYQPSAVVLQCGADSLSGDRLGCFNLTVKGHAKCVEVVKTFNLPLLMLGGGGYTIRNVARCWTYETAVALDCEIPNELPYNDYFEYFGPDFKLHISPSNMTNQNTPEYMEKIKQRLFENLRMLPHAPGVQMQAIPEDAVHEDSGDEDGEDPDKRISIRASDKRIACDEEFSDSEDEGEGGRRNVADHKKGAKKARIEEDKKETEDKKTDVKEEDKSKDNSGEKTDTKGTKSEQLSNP
Chain of Coagulation factor X (P00742 41-179 limits assumed): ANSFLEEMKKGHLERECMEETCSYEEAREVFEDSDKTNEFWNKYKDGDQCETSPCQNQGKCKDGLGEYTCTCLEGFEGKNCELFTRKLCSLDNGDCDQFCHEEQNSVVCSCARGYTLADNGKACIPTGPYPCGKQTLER
Chain of Coagulation factor X (P00742 235-488 limits assumed): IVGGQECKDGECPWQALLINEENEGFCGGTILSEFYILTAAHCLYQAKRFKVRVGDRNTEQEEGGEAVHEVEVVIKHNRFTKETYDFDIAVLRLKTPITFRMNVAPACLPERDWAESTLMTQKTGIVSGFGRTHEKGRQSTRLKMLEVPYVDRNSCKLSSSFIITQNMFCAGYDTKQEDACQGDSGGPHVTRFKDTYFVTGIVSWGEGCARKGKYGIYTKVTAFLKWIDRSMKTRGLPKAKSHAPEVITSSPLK
Chain of Acetylcholinesterase (P22303 whole entry): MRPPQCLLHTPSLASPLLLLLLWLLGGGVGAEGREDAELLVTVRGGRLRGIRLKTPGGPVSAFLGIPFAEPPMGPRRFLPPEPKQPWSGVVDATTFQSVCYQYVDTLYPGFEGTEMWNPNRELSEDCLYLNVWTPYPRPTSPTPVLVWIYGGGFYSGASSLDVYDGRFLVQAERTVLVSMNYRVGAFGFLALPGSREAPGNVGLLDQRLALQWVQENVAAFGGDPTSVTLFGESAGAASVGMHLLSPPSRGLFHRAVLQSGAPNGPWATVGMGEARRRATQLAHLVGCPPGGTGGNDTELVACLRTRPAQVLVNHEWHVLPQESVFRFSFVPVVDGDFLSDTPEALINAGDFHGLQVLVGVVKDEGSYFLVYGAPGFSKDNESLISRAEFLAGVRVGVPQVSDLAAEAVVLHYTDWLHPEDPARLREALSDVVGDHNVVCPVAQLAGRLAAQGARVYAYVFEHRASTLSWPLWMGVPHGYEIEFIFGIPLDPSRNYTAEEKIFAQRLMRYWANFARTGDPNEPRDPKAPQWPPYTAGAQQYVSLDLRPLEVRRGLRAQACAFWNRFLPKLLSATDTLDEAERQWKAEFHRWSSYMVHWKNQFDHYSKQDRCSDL

CCn1nc(C2CCN(C(=O)CCO)CC2)nc1-c1cnc(N)c(-c2nnc(C(C)(C)C)o2)n1 [AZD-8835]
IC50 [1]: 0.93 µM

Cn1cc(-c2cnc3ccn(S(=O)(=O)c4ccccc4)c3n2)cn1
inhibition [2]: 92.5%
inhibition [3]: 93.3%

CN1CCN(c2cnc(C(=O)Nc3cc(-c4cccs4)ccc3[N+](=O)[O-])cn2)CC1
IC50 (Histone deacetylase 3): 6.1 µM
IC50 (Histone deacetylase 1): 0.07 µM
IC50 (Histone deacetylase 2): 0.26 µM

CC(C)(O)CCC[C@](C)(O)C1CC[C@]2(C)[C@@H]1[C@H](O)C[C@@H]1[C@@]3(C)Cc4nccnc4C(C)(C)[C@@H]3CC[C@]12C (stereo not given in full)
IC50 (BGC-823): 11.5 µM

O=C(Nc1ccc2c(ccn2Cc2cccc(F)c2)c1)c1cnccn1
IC50 [4]: 0.78 µM

CCn1c(-c2ccc(OC)cc2)cn2nc(-c3ccc(OC)cc3)cc2c1=O
IC50 (H322): 50.6 µM
IC50 (A549 [5]): 49.7 µM

c1cn2cc(-c3ccc4cn[nH]c4c3)nc(Nc3ccc(N4CCOCC4)cc3)c2n1 [ENTOSPLETINIB]
IC50 (NCI-H460): > 10 µM
IC50 (HEY): > 10 µM
IC50 (ES-2): > 10 µM
IC50 (NCI-H1299): 6.26 µM
IC50 (A549 [6]): > 10 µM
IC50 (SK-OV-3): > 10 µM
IC50 (Caco-2): 6.86 µM
IC50 (OVCAR-5): 8.3 µM
IC50 (SW626): > 10 µM

CN(CCCN(C)CCN1C(=O)c2cccc3c2c(cc2nccnc23)C1=O)CCN1C(=O)c2cccc3c2c(cc2nccnc23)C1=O
IC50 (PC-3): 0.08 µM
IC50 (HT-29): 0.02 µM
IC50 (HeLa): 0.08 µM

C[C@@H]1[C@]2(O[C@H]3C=C4[C@@H]5CC[C@H]6Cc7nc8c(nc7C[C@]6(C)[C@H]5C[C@@H](O)[C@]4(C)[C@]31O)C[C@@H]1CC[C@H]3C4=CC5O[C@@]6(CCC(C)(C)O6)[C@@H](C)[C@@H]5[C@@]4(C)[C@H](O)C[C@@H]3[C@@]1(C)C8)O[C@@](C)(COC(=O)CNC(=O)Cc1cc(=O)oc3cc(N(C)C)ccc13)C[C@H]2O (stereo not given in full)
IC50 (HCT-116): 0.079 µM

CN(C)CCNc1ccc2c3c(cccc13)-c1nc(C#N)c(C#N)nc1-2
IC50 (MCF7 [7]): 4.6 µM

Fc1ccc(CSc2nnc(-c3cnccn3)n2-c2ccccc2)cc1
IC50 [8]: 15 µM
IC50 (SW 1116): 4.12 µM

O=C1c2cc3ccccc3n2C(=O)C2Cc3ccncc3N12 (stereo not given)
Activity (MCF7 [9]): 50.6%

Cc1cccc(-c2cnc3cccnc3n2)c1
IC50 (Acetylcholinesterase): 0.89 µM
IC50 (Cholinesterase): 0.5 µM

O=c1c2cc(-c3ccc(Cl)cc3)nn2cc(-c2ccccc2)n1CCN1CCOCC1
IC50 (H322): 34.7 µM
IC50 (A549 [5]): 24.2 µM

COc1nccc2c1N1C(=O)c3cc4ccccc4n3C(=O)C1C2 (stereo not given)
Activity (MCF7 [9]): 50.9%

Cc1nc(C)c(C(=O)NCCCCCCCCCCCCNOC(=O)c2ccc3cc[nH]c3c2)nc1C
IC50 (4T1): 1.16 µM
IC50 (MCF7 [10]): 1.11 µM
IC50 (MDA-MB-231): 0.84 µM
IC50 at 5 days [11]: 3.16 µM
IC50 (HUVEC): 3.82 µM

CN1C2(CCN(c3ccncc3)CC2)CN2C(=O)CN(S(=O)(=O)c3ccc4cc(Cl)ccc4c3)CC21CO (stereo not given)
IC50 (Coagulation factor X): 0.00058 µM

CC(OC(=O)c1ccccc1)c1cnccn1 (stereo not given)
EC50 (Phytophthora nicotianae): 0.187 µg/mL (≈ 0.819 µM)
EC50 (Rhizoctonia solani): 0.019 µg/mL (≈ 0.0832 µM)
